Test results taken from PubChem BioAssay (NCI).
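Values below derive from 48-hour exposures of cells grown in 96-well plates, with endpoints linearly interpolated between the two concentrations bracketing the appropriate inhibition level. TGI denotes the concentration required for complete inhibition of growth.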

Tests used:
Assay in all cases: inhibition of tumour cell growth, NCI panel, 48 h
IGROV1 ovarian = test system: IGROV1 ovarian
M19-MEL melanoma = test system: M19-MEL melanoma
SN12C renal = test system: SN12C renal
NCI-H522 lung = test system: NCI-H522 lung
MALME-3M melanoma = test system: MALME-3M melanoma
HCC-2998 colon = test system: HCC-2998 colon
EKVX NSCLC = test system: EKVX NSCLC
SR leukemia = test system: SR leukemia
OVCAR-8 ovarian = test system: OVCAR-8 ovarian
SF-539 CNS = test system: SF-539 CNS
RPMI-8226 leukemia = test system: RPMI-8226 leukemia
HCT-15 colon = test system: HCT-15 colon
SNB-75 CNS = test system: SNB-75 CNS
UACC-257 melanoma = test system: UACC-257 melanoma
OVCAR-3 ovarian = test system: OVCAR-3 ovarian
MOLT-4 leukemia = test system: MOLT-4 leukemia
SNB-19 CNS = test system: SNB-19 CNS
DMS 114 small cell lung = test system: DMS 114 small cell lung
NCI-H23 lung = test system: NCI-H23 lung
COLO 205 colon = test system: COLO 205 colon
DLD-1 colon = test system: DLD-1 colon
XF 498 CNS = test system: XF 498 CNS
HL-60(TB) leukemia = test system: HL-60(TB) leukemia
SW-620 colon = test system: SW-620 colon
HOP-62 NSCLC = test system: HOP-62 NSCLC
SF-295 CNS = test system: SF-295 CNS
KM20L2 colon = test system: KM20L2 colon
LOX IMVI melanoma = test system: LOX IMVI melanoma
SNB-78 CNS = test system: SNB-78 CNS
SK-MEL-28 melanoma = test system: SK-MEL-28 melanoma
SF-268 CNS = test system: SF-268 CNS
HCT-116 colon = test system: HCT-116 colon
UACC-62 melanoma = test system: UACC-62 melanoma
CCRF-CEM leukemia = test system: CCRF-CEM leukemia
DMS 273 small cell lung = test system: DMS 273 small cell lung
SK-MEL-2 melanoma = test system: SK-MEL-2 melanoma
SK-MEL-5 melanoma = test system: SK-MEL-5 melanoma
SK-OV-3 ovarian = test system: SK-OV-3 ovarian
OVCAR-5 ovarian = test system: OVCAR-5 ovarian
NCI-H460 lung = test system: NCI-H460 lung
NCI-H226 lung = test system: NCI-H226 lung
OVCAR-4 ovarian = test system: OVCAR-4 ovarian
LXFL 529 NSCLC = test system: LXFL 529 NSCLC
M14 melanoma = test system: M14 melanoma
A549 NSCLC = test system: A549 NSCLC
HT29 colon = test system: HT29 colon
U251 CNS = test system: U251 CNS
RXF 393 renal = test system: RXF 393 renal
KM12 colon = test system: KM12 colon
ACHN renal = test system: ACHN renal
A498 renal = test system: A498 renal
HOP-92 NSCLC = test system: HOP-92 NSCLC
TK-10 renal = test system: TK-10 renal
UO-31 renal = test system: UO-31 renal
786-0 renal = test system: 786-0 renal
K-562 leukemia = test system: K-562 leukemia
CAKI-1 renal = test system: CAKI-1 renal

CN(CCO)/N=N/c1nc[nH]c1C(N)=O
TGI (IGROV1 ovarian): > 100 µM
TGI (M19-MEL melanoma): > 100 µM
TGI (SN12C renal): > 100 µM
TGI (NCI-H522 lung): > 100 µM
TGI (MALME-3M melanoma): > 100 µM
TGI (HCC-2998 colon): > 100 µM
TGI (EKVX NSCLC): > 100 µM
TGI (SR leukemia): > 100 µM
TGI (OVCAR-8 ovarian): > 100 µM
TGI (SF-539 CNS): > 100 µM
TGI (RPMI-8226 leukemia): > 100 µM
TGI (HCT-15 colon): > 100 µM
TGI (SNB-75 CNS): > 100 µM
TGI (UACC-257 melanoma): > 100 µM
TGI (OVCAR-3 ovarian): > 100 µM
TGI (MOLT-4 leukemia): > 100 µM
TGI (SNB-19 CNS): > 100 µM
TGI (DMS 114 small cell lung): > 100 µM
TGI (NCI-H23 lung): > 100 µM
TGI (COLO 205 colon): > 100 µM
TGI (DLD-1 colon): > 100 µM
TGI (XF 498 CNS): > 100 µM
TGI (HL-60(TB) leukemia): > 100 µM
TGI (SW-620 colon): > 100 µM
TGI (HOP-62 NSCLC): > 100 µM
TGI (SF-295 CNS): > 100 µM
TGI (KM20L2 colon): > 100 µM
TGI (LOX IMVI melanoma): > 100 µM
TGI (SNB-78 CNS): > 100 µM
TGI (SK-MEL-28 melanoma): > 100 µM
TGI (SF-268 CNS): > 100 µM
TGI (HCT-116 colon): > 100 µM
TGI (UACC-62 melanoma): > 100 µM
TGI (CCRF-CEM leukemia): > 100 µM
TGI (DMS 273 small cell lung): > 100 µM
TGI (SK-MEL-2 melanoma): > 100 µM
TGI (SK-MEL-5 melanoma): > 100 µM
TGI (SK-OV-3 ovarian): > 100 µM
TGI (OVCAR-5 ovarian): > 100 µM
TGI (NCI-H460 lung): > 100 µM
TGI (NCI-H226 lung): > 100 µM
TGI (OVCAR-4 ovarian): > 100 µM
TGI (LXFL 529 NSCLC): > 100 µM
TGI (M14 melanoma): > 100 µM
TGI (A549 NSCLC): > 100 µM
TGI (HT29 colon): > 100 µM
TGI (U251 CNS): > 100 µM
TGI (RXF 393 renal): > 100 µM
TGI (KM12 colon): > 100 µM
TGI (ACHN renal): > 100 µM
TGI (A498 renal): > 100 µM
TGI (HOP-92 NSCLC): > 100 µM
TGI (TK-10 renal): > 100 µM

CC#Cc1c(C#CC)c(OC)c2c(c1OC)C(=O)c1ccccc1C2=O
TGI (IGROV1 ovarian): > 100 µM
TGI (M19-MEL melanoma): > 100 µM
TGI (SN12C renal): > 100 µM
TGI (NCI-H522 lung): 42.5 µM
TGI (MALME-3M melanoma): > 100 µM
TGI (HCC-2998 colon): > 100 µM
TGI (EKVX NSCLC): > 100 µM
TGI (SR leukemia): > 100 µM
TGI (OVCAR-8 ovarian): > 100 µM
TGI (RPMI-8226 leukemia): > 100 µM
TGI (HCT-15 colon): > 100 µM
TGI (UACC-257 melanoma): > 100 µM
TGI (OVCAR-3 ovarian): > 100 µM
TGI (UO-31 renal): > 100 µM
TGI (MOLT-4 leukemia): > 100 µM
TGI (SNB-19 CNS): 71.4 µM
TGI (DMS 114 small cell lung): 89 µM
TGI (NCI-H23 lung): > 100 µM
TGI (COLO 205 colon): > 100 µM
TGI (DLD-1 colon): > 100 µM
TGI (XF 498 CNS): > 100 µM
TGI (HL-60(TB) leukemia): > 100 µM
TGI (SW-620 colon): > 100 µM
TGI (HOP-62 NSCLC): 45.4 µM
TGI (SF-295 CNS): 39.1 µM
TGI (KM20L2 colon): > 100 µM
TGI (LOX IMVI melanoma): > 100 µM
TGI (786-0 renal): > 100 µM
TGI (SK-MEL-28 melanoma): > 100 µM
TGI (SF-268 CNS): 78.6 µM
TGI (HCT-116 colon): 72.6 µM
TGI (K-562 leukemia): > 100 µM
TGI (UACC-62 melanoma): > 100 µM
TGI (CCRF-CEM leukemia): > 100 µM
TGI (DMS 273 small cell lung): > 100 µM
TGI (SK-MEL-2 melanoma): > 100 µM
TGI (SK-MEL-5 melanoma): > 100 µM
TGI (SK-OV-3 ovarian): > 100 µM
TGI (CAKI-1 renal): > 100 µM
TGI (OVCAR-5 ovarian): > 100 µM
TGI (NCI-H460 lung): > 100 µM
TGI (OVCAR-4 ovarian): > 100 µM
TGI (LXFL 529 NSCLC): > 100 µM
TGI (M14 melanoma): > 100 µM
TGI (A549 NSCLC): > 100 µM
TGI (HT29 colon): > 100 µM
TGI (U251 CNS): 48 µM
TGI (RXF 393 renal): 55.1 µM
TGI (KM12 colon): > 100 µM
TGI (ACHN renal): 34.8 µM
TGI (A498 renal): > 100 µM
TGI (TK-10 renal): > 100 µM
